The results in this text go back to paper PMC8509398, “Proteolytic Cleavage of Bioactive Peptides and Protease-Activated Receptors in Acute and Post-Colitis” (International Journal of Molecular Sciences, 2021).

Conditions in all cases: 25 nM protease, 10 µM peptide
One data set deals with trypsin-2 (Homo sapiens, UniProt P07478). In words: Cleavage of peptides by purified trypsin-2, MALDI-TOF/TOF. From the text: (§1) Trypsin-like proteases included in the experiments are trypsin-1, -2 and -3, tryptase (Enzo LifeSciences), thrombin (Sigma-Aldrich) and cathepsin G (Sigma-Aldrich). Trypsin-1, -2 and -3 were produced as described by Koistinen et al. and Wu et al.. Two elastase-like enzymes, neutrophil elastase (Enzo LifeSciences, Farmingdale, NY, USA) and pancreatic elastase I (Sigma-Aldrich) were included as well. All enzymes were from human origin except for pancreatic elastase from porcine pancreas.
trypsin-2, sequence (P07478 24-247): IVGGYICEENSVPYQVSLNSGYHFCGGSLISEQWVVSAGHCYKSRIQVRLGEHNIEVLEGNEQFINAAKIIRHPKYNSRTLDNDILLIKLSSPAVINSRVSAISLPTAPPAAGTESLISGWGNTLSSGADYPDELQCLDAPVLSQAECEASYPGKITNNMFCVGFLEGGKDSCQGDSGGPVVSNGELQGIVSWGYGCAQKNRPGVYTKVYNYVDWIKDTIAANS
(§2) Reaction mixtures with purified enzymes were compiled in an identical way. Each mixture contained an equimolar concentration of protease (25 nM based on) and 10 µM peptide of interest and was incubated for 2, 5, 10 and 30 min at 37 °C. Substance P was added as the standard peptide except for the reaction mixtures with substance P or bradykinin as the peptide of interest, where angiotensin II (Bachem) was added.
(§3) The TFA mixtures were thawed on ice and desalted using C18 zip-tips (Merck Millipore®, Burlington, MA, USA) with a capacity of 5 µg protein. Retained peptide fragments were eluted directly on the MALDI target plate. Next, 0.5 µL of a 2.5 mg/mL α-cyano-4-hydroxycinnamic acid (Sigma-Aldrich) matrix solution (in 70% acetonitrile, 0.1% TFA) was spotted on top of the sample. A 6-Peptide mixture Kit (AB Sciex, Framingham, MA, USA) containing bradykinin (2–9), angiotensin I, glu1-fibrinopeptide, ACTH (1–17), ACTH (18–39) and ACTH (7–38) was diluted with matrix and spotted on the plate as well.
(§4) MS and MS/MS data for peptide fragment identification were obtained with a MALDI-TOF/TOF instrument (4800 MALDI TOF/TOF™, Applied Biosystems, Waltham, MA, USA) and instrument parameters were set using 4000 Series Explorer™ software. MS spectra were recorded in positive reflector mode in a mass range from 500 to 4000 Da and laser intensity of 4500–4800 Hz. The spectra were calibrated using the calibration mixture mentioned above to a mass tolerance of 0.1 Da. MS/MS spectra were recorded with high-energy collision-induced dissociation and the laser intensity was increased by 10%. Precursor mass m/z 1570.65 (Glu1-Fibrinopeptide from the calibration mixture) was used to calibrate the MS/MS spectra to a mass tolerance of 0.1 Da.
(§5) MS and MS/MS spectra were processed using DataExplorer™ software and the obtained output files were uploaded in the MS-PEP data analyzer (https://bioit.shinyapps.io/PARs/ accessed 10/08/2020) for peptide fragment identification. Identified fragments were confirmed using the MS/MS spectra and mMass 5.5.0 by Martin Strohalm. The relative intensities of the fragments were calculated as the ratio of the intensity of the peak of interest to the intensity of the peak of the standard peptide.

The next data set addresses pancreatic elastase I (Sus scrofa, UniProt P00772). In words: Cleavage of peptides by purified pancreatic elastase, MALDI-TOF/TOF.
Another data set deals with T1, neutrophil elastase (Homo sapiens, UniProt P08246).
T1 sequence (P08246 30-267): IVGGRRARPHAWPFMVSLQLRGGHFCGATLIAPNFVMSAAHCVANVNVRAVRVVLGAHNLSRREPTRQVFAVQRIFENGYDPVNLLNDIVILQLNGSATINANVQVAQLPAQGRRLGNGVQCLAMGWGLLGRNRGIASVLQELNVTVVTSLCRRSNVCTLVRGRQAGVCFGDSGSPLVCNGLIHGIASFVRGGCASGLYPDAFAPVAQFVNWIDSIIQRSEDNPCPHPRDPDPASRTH
The experiment in a line: Cleavage of peptides by purified neutrophil elastase, MALDI-TOF/TOF.
Source text: as §1
(§6) Reaction mixtures with purified enzymes were compiled in an identical way. […] Substance P was added as the standard peptide except for the reaction mixtures with substance P or bradykinin as the peptide of interest, where angiotensin II (Bachem) was added.
as §3
(§7) MS and MS/MS data for peptide fragment identification were obtained with a MALDI-TOF/TOF instrument (4800 MALDI TOF/TOF™, Applied Biosystems, Waltham, MA, USA) and instrument parameters were set using 4000 Series Explorer™ software. MS spectra were recorded in positive reflector mode in a mass range from 500 to 4000 Da and laser intensity of 4500–4800 Hz. The spectra were calibrated using the calibration mixture mentioned above to a mass tolerance of 0.1 Da. MS/MS spectra were recorded with high-energy collision-induced dissociation and the laser intensity was increased by 10%.
(§8) Identified fragments were confirmed using the MS/MS spectra and mMass 5.5.0 by Martin Strohalm. The relative intensities of the fragments were calculated as the ratio of the intensity of the peak of interest to the intensity of the peak of the standard peptide.

In a further data set the target is tryptase (Homo sapiens, UniProt Q15661). In words: Cleavage of peptides by purified tryptase, MALDI-TOF/TOF.
tryptase, sequence (Q15661 31-275): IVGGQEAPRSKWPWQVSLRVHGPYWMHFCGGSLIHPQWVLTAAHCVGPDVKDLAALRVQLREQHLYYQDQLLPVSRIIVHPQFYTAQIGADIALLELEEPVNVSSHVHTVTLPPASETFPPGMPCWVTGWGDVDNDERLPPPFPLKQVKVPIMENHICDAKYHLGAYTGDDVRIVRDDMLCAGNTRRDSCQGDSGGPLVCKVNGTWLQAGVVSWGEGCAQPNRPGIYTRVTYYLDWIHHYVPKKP
Source text: as §1, §2, §3, §4, §5

For the next data set, the target named is T2, cathepsin G (Homo sapiens, UniProt P08311).
T2 sequence (P08311 21-255): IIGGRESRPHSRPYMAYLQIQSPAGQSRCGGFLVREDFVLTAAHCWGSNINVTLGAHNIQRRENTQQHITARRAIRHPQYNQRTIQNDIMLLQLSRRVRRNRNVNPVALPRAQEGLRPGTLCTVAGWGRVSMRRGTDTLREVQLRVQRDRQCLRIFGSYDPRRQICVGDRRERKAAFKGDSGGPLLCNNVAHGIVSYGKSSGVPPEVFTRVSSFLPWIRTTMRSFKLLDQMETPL
The experiment in a line: Cleavage of peptides by purified cathepsin G, MALDI-TOF/TOF.
Source text: as §1, §6, §3, §7, §8

A further data set addresses T3, trypsin-3 (Homo sapiens, UniProt P35030).
T3 sequence (P35030 1-304): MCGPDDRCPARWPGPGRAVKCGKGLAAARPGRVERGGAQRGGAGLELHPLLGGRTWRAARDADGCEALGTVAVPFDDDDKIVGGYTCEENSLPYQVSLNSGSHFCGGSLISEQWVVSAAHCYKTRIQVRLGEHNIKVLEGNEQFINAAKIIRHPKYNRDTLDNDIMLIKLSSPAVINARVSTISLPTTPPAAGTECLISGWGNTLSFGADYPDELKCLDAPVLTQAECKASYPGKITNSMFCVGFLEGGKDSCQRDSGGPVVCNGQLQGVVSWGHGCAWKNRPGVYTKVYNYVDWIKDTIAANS
In words: Cleavage of peptides by purified trypsin-3, MALDI-TOF/TOF.
Source text: as §1, §2, §3, §4, §5

The next data set addresses thrombin (Homo sapiens, UniProt P00734). In words: Cleavage of peptides by purified thrombin, MALDI-TOF/TOF.
Source text: as §1, §2, §3, §4, §5

Another data set has as its target trypsin-1 (Homo sapiens, UniProt P07477). In words: Cleavage of peptides by purified trypsin-1, MALDI-TOF/TOF.
Source text: as §1, §2, §3, §4, §5

[1] abbreviates: 37 °C, 2, 5, 10 and 30 min, stopped with 2% TFA.
Where [2] appears, read: 37 °C, time points 2, 5, 10, 30 min.

Some results are limits rather than exact numbers.

pancreatic elastase I, sequence (P00772 27-266): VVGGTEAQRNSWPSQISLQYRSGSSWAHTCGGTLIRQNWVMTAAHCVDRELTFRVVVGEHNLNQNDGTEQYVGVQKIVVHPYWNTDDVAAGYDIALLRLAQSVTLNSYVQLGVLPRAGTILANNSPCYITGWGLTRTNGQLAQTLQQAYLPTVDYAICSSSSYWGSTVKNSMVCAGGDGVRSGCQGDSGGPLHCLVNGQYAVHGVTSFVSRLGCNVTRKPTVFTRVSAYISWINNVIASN

`CC[C@H](C)[C@H](NC(=O)[C@H](C)NC(=O)[C@H](CC(N)=O)NC(=O)[C@H](CCCCN)NC(=O)[C@H](Cc1ccccc1)NC(=O)[C@H](CC(C)C)NC(=O)[C@@H](NC(=O)[C@@H](NC(=O)[C@H](CC(C)C)NC(=O)[C@@H]1CCCN1C(=O)[C@@H](NC(=O)[C@H](CCC(N)=O)NC(=O)[C@H](CO)NC(=O)[C@H](CCCCN)NC(=O)[C@H](CCC(=O)O)NC(=O)[C@H](CO)NC(=O)[C@@H](NC(=O)[C@H](CCSC)NC(=O)[C@H](Cc1ccccc1)NC(=O)CNC(=O)CNC(=O)[C@@H](N)Cc1ccc(O)cc1)[C@@H](C)O)[C@@H](C)O)C(C)C)[C@@H](C)O)C(=O)N[C@H](C(=O)N[C@@H](CCCCN)C(=O)N[C@@H](CC(N)=O)C(=O)N[C@@H](C)C(=O)N[C@@H](Cc1ccc(O)cc1)C(=O)N[C@@H](CCCCN)C(=O)N[C@@H](CCCCN)C(=O)NCC(=O)N[C@@H](CCC(=O)O)C(=O)O)[C@@H](C)CC` [β-endorphin]: the “Efficiency of the first cleavage in the peptide, Trypsin-2” value at trypsin-2 (setting [1]) was “+++ (ultrafast processing within 2 min)”. Besides, the “Incubation time at which the first cleavage or decrease of the full-length peptide was observed, trypsin-2” value at trypsin-2 (setting [2]) turned out to be 2 min. In addition, the “Efficiency of the first cleavage in the peptide, Pancreatic Elastase” value on pancreatic elastase I (setting [1]) is on record as “+++ (ultrafast processing within 2 min)”. The “Incubation time at which the first cleavage or decrease of the full-length peptide was observed, pancreatic elastase” value on pancreatic elastase I (setting [2]) was found to be 2 min. Besides, the “Efficiency of the first cleavage in the peptide, Neutrophil Elastase” value on neutrophil elastase (setting [1]) is “+++ (ultrafast processing within 2 min)”. The “Incubation time at which the first cleavage or decrease of the full-length peptide was observed, neutrophil elastase” value at neutrophil elastase (setting [2]) is given as 2 min. The “Efficiency of the first cleavage in the peptide, Tryptase” value on tryptase (setting [1]) is given as “+++ (ultrafast processing within 2 min)”. In addition, on tryptase (setting [2]), the “Incubation time at which the first cleavage or decrease of the full-length peptide was observed, tryptase” value came to 2 min. Also, at cathepsin G (setting [1]), the “Efficiency of the first cleavage in the peptide, Cathepsin G” value is recorded as “+++ (ultrafast processing within 2 min)”. The “Incubation time at which the first cleavage or decrease of the full-length peptide was observed, cathepsin G” value at cathepsin G (setting [2]) came out at 2 min. Besides, the “Efficiency of the first cleavage in the peptide, Trypsin-3” value at trypsin-3 (setting [1]) is reported as “−”. The “Incubation time at which the first cleavage or decrease of the full-length peptide was observed, trypsin-3” value at trypsin-3 (setting [2]) is more than 30 min. On thrombin (setting [1]), the “Efficiency of the first cleavage in the peptide, Thrombin” value is listed as “−”. Moreover, the “Incubation time at which the first cleavage or decrease of the full-length peptide was observed, thrombin” value on thrombin (setting [2]) is more than 30 min. Also, the “Efficiency of the first cleavage in the peptide, Trypsin-1” value at trypsin-1 (setting [1]) is listed as “+++ (ultrafast processing within 2 min)”. Further, the “Incubation time at which the first cleavage or decrease of the full-length peptide was observed, trypsin-1” value on trypsin-1 (setting [2]) is recorded as 2 min.
